Data set [1] in a line: in vitro. The settings on record: human, hepatocytes.
Data set [2] in a line: in vitro. Conditions: rat, hepatocytes.
The target of data set [3] is T1, 5-HT6 receptor (Homo sapiens, UniProt P50406). Briefly: In vitro affinity for human 5-HT6 receptors ([3H]-LSD binding, CHO cell membranes). Also on record: host or cells: CHO/Gα16/mtAEQ/h5HT6-A1 cells. The settings on record: [3H]-LSD, membranes of CHO cells with human 5-HT6, read-out: 5-HT6 pKi (converted).
Method: In Vitro Affinity for Human 5-HT6 Receptors
Affinity for human 5-HT6 receptors was measured in a membrane preparation of CHO-cells transfected with human 5-HT6 receptors by binding studies using [^3H]-N-Methyl-Lysergic acid diethylamide ([^3H]-LSD) as ligand. […] CHO/Gα16/mtAEQ/h5HT6-A1 cells were grown in T-flasks in CHO-S-SFM II medium (Gibco BRL), supplemented with 1% dialysed FCS, 2 mM L-glutamine, Geneticin 500 μg/ml and Zeocin 200 μg/ml. […] After thawing cells were centrifuged during 3 minutes at 1500 g at 4° C. […] The assay was established so as to achieve steady state conditions and to optimize specific binding. For the 5-HT6 receptor, membranes from 5.10^5 cells were incubated with 5.0 nM [^3H]-LSD at 37° C. for 30 minutes. Nonspecific binding was determined using 10^−5 M serotonin. Assays were terminated by vacuum filtration through glass fibre filters (GF/B) which had been pretreated with 0.5% polyethyleneimine. Total and bound radioactivity was determined by liquid scintillation counting. […] Compounds were tested at a 4 log concentration range; all determinations were performed as triplicates. IC50 values were determined by non-linear regression analysis using Hill equation curve fitting. The inhibition constants (Ki-values) were calculated from the Cheng-Preushoff equation: Ki=IC50:(1+L/Kd) wherein L represents the concentration [^3H]-LSD in the assay, and Kd its affinity for the receptor. Results are expressed as pKi-values, means±SD of at least three separate experiments.
Data set [4] concerns the target T1, 5-HT6 receptor. Briefly: In vitro functional activity ((ant)agonism) on human 5-HT6 receptors, CHO-human-5HT6-Aequorin assay. The class given is cell-based. The settings on record: antagonism of 10^-8 M α-methylserotonin induced luminescence, read-out: 5-HT6 pA2 (converted). Also on record: host or cells: CHO AequoScreen recombinant cell line (expresses mitochondrial targeted apo-Aequorin).
Method: Human-5-HT6-Aequorin cells express mitochondrial targeted apo-Aequorin. Cells have to be loaded with coelanterazine, in order to reconstitute active Aequorin. […] This luminescent response is dependent on the agonist concentration. Luminescence is measured using the MicroBeta Jet (Perkin Elmer). Agonistic effects of compounds are expressed as pEC50. […] Compounds were tested at a 5 log concentration range, and 3 independent experiments were performed in duplicate.

For data set [5] the following is noted: Sleight, 1998; cited from earlier work.
Data set [6] deals with T1, 5-HT6 receptor. Conditions: 5-HT6 receptor (Sleight, 1998); cited from earlier work.
For data set [7] the following is noted: Rogers, 1999; cited from earlier work.

Read-outs that look alike come from different tables or passages of the source.

T1 sequence (P50406 whole entry): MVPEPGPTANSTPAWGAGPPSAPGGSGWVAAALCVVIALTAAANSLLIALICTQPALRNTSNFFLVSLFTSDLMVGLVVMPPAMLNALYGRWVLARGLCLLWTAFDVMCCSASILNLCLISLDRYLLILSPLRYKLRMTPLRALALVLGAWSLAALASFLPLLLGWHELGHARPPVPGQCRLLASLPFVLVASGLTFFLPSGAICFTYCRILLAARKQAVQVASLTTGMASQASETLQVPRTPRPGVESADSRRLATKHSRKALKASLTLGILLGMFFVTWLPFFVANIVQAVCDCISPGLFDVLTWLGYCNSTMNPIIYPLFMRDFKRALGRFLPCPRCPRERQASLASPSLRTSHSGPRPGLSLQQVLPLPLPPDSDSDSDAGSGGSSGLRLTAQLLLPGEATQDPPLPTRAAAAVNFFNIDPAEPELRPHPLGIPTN

As a reminder, the half-life is the time in which the quantity being followed falls by half. Lower therefore signals fast loss. Take `CCN/C(=N\S(=O)(=O)c1ccc(O)cc1)N1CC(C)(C)C=N1` [Compound 22]: the half-life at 1 μg/ml in “in vitro [1]” was determined as 1440 min; in the data set “in vitro [2]”, 33 min. Besides, the Ki at 5-HT6 receptor [3] (comparison table Example 6) and at 5-HT6 receptor [3] (main compound table) was 12.6 nM each time. Moreover, the Kb on 5-HT6 receptor [4] (main compound table) was 5.01 nM.
Take `CCN/C(=N\S(=O)(=O)c1ccc(OC)cc1)N1CC(CC)C=N1` (centres unmarked) [Compound 81 from WO 2008/034863, reference compound]: the half-life at 1 μg/ml in “in vitro [1]” was determined as 68 min; in “in vitro [2]”, 16 min. The Ki on 5-HT6 receptor [3] (comparison table Example 6) was 63.1 nM. In addition, on 5-HT6 receptor [4] (comparison table Example 6), the Kb is 100 nM.
Take `CNc1cc(NS(=O)(=O)c2ccc(N)cc2)nc(NC)n1` [Ro 04-6790]: the pharmacokinetics result in data set [5] is listed as “poor”. Further, the Ki at 5-HT6 receptor [6] is 50 nM.
For `CNc1cc(NS(=O)(=O)c2ccc(N)cc2)cc(NC)n1` [Ro 63-0563], the pharmacokinetics entry in data set [5] was “poor”. In addition, at 5-HT6 receptor [6], the Ki was 12 nM.
As for `COc1ccc(NS(=O)(=O)c2sc3ccc(Cl)cc3c2C)cc1N1CCNCC1` [SB-271046], in data set [7], the “performance in the Morris water maze” value was “improved performance”.

These data come from US8563723B2, “Arylsulfonyl pyrazoline carboxamidine derivatives as 5-HT6 antagonists” (Abbott Healthcare Products, B.V., priority 2008, dated 2013).
